This is an account of results in patent US9012443B2 (Amgen Inc., priority 2011, dated 2015).

Read-outs that look alike come from different tables or passages of the source. Some results are limits rather than exact numbers.

One series has as its target Nav 1.5 (Homo sapiens (Human), UniProt Q14524). Put plainly: Nav 1.5 in vitro PX assay (PatchXpress whole cell voltage clamp). Type of series: cell-based. An outline of the steps: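 HEK293 cells stably expressing Nav 1.5, whole-cell voltage clamp held at −50 mV; 20 msec test pulses to 0 mV at 0.1 Hz, each preceded by a step to −120 mV.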
The next series deals with Nav 1.7 (Homo sapiens (Human), UniProt Q15858). Put plainly: Nav 1.7 in vitro PX assay (PatchXpress whole cell voltage clamp). It counts as cell-based. The note with it: 293 cells, human Nav1.7, partially inactivated state; read-out: Nav1.7 PX IC50 IP. An outline of the steps: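 HEK293 cells stably expressing human Nav1.7, whole-cell voltage clamp on PatchXpress, held at potential giving 20–50% inactivation; current elicited by 20 msec pulse to −10 mV.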

[1] abbreviates: 293 cells stably transfected with Nav 1.5, second part of table, read-out: Nav1.5 PX IC50.

Sequence of Nav 1.5 (Q14524 whole entry): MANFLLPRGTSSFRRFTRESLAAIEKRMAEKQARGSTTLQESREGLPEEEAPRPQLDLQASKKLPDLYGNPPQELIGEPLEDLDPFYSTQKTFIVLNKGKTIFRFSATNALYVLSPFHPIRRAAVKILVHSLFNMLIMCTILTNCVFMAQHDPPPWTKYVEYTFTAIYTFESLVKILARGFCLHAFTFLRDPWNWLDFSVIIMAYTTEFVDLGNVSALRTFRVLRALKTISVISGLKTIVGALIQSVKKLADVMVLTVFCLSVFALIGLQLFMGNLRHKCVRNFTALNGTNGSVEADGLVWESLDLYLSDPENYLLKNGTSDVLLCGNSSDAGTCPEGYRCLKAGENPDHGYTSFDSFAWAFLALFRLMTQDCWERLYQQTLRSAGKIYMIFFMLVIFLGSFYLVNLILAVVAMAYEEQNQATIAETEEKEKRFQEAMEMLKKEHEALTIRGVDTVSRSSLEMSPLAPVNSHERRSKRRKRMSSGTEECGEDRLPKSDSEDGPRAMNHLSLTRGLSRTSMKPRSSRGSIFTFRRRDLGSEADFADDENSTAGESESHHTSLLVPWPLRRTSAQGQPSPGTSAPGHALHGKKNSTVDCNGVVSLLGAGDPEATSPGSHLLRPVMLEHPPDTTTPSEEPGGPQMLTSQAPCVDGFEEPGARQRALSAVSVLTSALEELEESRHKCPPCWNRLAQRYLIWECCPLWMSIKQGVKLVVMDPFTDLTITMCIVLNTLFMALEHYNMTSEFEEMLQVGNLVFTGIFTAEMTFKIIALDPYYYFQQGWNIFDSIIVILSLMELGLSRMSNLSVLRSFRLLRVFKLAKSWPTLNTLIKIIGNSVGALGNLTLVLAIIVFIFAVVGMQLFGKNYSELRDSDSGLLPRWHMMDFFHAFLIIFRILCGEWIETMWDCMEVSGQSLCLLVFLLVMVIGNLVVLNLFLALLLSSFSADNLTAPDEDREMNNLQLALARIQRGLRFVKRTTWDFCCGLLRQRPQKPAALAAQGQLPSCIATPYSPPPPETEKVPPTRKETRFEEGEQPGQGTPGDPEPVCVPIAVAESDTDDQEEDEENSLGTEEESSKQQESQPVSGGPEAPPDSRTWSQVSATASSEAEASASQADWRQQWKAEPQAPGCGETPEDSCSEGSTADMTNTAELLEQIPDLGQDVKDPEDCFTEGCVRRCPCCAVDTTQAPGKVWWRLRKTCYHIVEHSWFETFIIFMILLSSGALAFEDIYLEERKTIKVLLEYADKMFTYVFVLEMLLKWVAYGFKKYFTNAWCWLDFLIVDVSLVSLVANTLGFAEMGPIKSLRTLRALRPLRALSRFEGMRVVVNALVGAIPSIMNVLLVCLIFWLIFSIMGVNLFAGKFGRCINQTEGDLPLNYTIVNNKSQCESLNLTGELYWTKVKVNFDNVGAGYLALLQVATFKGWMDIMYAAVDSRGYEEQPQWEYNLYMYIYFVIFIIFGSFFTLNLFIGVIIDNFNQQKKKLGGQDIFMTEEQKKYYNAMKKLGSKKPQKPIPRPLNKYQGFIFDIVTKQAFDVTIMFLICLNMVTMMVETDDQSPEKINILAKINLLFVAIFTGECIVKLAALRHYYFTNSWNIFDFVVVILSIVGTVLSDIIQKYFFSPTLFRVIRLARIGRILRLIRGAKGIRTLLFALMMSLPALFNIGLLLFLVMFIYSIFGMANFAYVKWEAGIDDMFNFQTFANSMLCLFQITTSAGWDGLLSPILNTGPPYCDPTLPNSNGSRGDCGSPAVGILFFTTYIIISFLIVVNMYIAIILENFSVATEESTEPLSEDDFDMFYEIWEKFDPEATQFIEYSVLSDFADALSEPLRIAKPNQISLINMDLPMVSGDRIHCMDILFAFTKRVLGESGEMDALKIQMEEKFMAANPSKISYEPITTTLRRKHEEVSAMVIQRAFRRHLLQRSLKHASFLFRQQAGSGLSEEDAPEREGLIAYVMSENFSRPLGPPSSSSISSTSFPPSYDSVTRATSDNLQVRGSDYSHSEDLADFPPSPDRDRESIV
Sequence of Nav 1.7 (Q15858 whole entry): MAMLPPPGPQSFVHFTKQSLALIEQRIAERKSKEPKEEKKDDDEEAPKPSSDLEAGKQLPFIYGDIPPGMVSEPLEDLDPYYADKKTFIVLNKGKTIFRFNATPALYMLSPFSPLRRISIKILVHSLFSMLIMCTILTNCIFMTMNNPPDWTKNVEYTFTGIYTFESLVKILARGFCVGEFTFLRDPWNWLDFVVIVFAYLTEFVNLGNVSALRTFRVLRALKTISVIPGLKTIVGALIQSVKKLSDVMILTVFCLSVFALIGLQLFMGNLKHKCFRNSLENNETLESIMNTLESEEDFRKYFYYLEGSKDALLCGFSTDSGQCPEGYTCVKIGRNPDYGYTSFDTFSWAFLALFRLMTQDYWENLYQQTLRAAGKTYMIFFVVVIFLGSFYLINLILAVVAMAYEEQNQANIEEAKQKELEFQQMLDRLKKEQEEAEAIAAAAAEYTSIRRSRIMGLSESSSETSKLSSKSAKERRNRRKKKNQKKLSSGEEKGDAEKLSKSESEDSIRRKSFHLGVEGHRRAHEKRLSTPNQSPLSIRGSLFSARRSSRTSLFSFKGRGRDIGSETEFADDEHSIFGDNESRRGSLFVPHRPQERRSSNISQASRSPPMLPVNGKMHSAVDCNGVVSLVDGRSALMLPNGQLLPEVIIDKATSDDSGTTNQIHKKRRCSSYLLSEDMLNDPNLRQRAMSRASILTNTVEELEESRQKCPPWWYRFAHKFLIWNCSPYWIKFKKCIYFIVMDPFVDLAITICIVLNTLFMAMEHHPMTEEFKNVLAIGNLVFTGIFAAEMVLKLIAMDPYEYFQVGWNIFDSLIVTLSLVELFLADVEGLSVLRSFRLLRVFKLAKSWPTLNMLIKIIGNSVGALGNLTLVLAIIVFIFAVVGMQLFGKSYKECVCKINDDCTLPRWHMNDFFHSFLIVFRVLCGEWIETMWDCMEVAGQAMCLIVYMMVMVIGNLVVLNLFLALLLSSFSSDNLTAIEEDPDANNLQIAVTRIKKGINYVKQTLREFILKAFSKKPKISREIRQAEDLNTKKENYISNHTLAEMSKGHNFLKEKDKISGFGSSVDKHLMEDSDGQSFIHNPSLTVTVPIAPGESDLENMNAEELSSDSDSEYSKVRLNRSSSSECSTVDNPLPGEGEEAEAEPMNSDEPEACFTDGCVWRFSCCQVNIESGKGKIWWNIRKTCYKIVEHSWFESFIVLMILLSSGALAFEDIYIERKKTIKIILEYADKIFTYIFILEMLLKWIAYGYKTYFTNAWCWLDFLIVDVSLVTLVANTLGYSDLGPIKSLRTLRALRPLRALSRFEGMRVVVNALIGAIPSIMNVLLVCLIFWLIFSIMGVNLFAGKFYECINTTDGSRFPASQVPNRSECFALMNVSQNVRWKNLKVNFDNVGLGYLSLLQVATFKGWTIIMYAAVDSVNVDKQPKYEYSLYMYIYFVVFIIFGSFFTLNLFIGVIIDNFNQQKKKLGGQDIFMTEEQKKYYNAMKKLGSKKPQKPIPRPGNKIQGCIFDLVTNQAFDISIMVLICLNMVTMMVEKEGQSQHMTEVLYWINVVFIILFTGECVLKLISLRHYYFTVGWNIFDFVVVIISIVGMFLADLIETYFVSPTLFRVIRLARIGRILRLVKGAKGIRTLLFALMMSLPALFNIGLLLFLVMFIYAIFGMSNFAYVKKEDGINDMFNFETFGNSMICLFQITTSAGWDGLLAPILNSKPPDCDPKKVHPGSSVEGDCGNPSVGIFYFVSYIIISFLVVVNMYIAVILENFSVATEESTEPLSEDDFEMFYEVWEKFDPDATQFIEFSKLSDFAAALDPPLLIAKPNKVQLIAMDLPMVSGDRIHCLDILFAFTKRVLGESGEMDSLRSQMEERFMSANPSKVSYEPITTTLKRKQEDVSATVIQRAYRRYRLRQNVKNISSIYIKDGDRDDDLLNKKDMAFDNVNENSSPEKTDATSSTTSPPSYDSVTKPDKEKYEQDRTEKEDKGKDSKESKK

`COc1cc(-c2ccc(C)c(C)c2)ccc1-c1nccc2cc(S(=O)(=O)Nc3ccncn3)ccc12` [Example 469]: the IC50 at Nav 1.5 (setting [1]) was above 30000 nM; on Nav 1.7, 170 nM.
Regarding `COc1cc(-c2cc(C)cc(C)c2)ccc1-c1nccc2cc(S(=O)(=O)Nc3ccncn3)ccc12` [Example 470], the IC50 was above 30000 nM on Nav 1.5 (setting [1]) and 180 nM at Nav 1.7.
For `COc1cc(-c2ccc(C)c(F)c2)ccc1-c1nccc2cc(S(=O)(=O)Nc3ccncn3)ccc12` [Example 471, 1-(3′-FLUORO-3-METHOXY-4′-METHYL-[1,1′-BIPHENYL]-4-YL)-N-(PYRIMIDIN-4-YL)ISOQUINOLINE-6-SULFONAMIDE], in that order: above 30000 nM and 56 nM.
In the case of `COc1cc(-c2cc(C)cc(F)c2)ccc1-c1nccc2cc(S(=O)(=O)Nc3ccncn3)ccc12` [Example 472, 1-(3′-FLUORO-3-METHOXY-5′-METHYL-[1,1′-BIPHENYL]-4-YL)-N-(PYRIMIDIN-4-YL)ISOQUINOLINE-6-SULFONAMIDE], the IC50 was above 30000 nM on Nav 1.5 (setting [1]) and 63 nM on Nav 1.7.
For the compound `COc1cc(-c2ccc(-c3nccc4cc(S(=O)(=O)Nc5ccncn5)ccc34)c(OC)c2)ccc1F` [Example 484, 1-(4′-FLUORO-3,3′-DIMETHOXY-[1,1′-BIPHENYL]-4-YL)-N-(PYRIMIDIN-4-YL)ISOQUINOLINE-6-SULFONAMIDE], the IC50 was above 30000 nM at Nav 1.5 (setting [1]) and 177 nM at Nav 1.7.
For the compound `COc1cc(F)cc(-c2ccc(-c3nccc4cc(S(=O)(=O)Nc5ccncn5)ccc34)c(OC)c2)c1` [Example 485, 1-(3′-FLUORO-3,5′-DIMETHOXY-[1,1′-BIPHENYL]-4-YL)-N-(PYRIMIDIN-4-YL)ISOQUINOLINE-6-SULFONAMIDE], the IC50 on Nav 1.5 (setting [1]) is above 30000 nM; at Nav 1.7, 128 nM.
Turning to `COc1cc(-c2ccc(F)c(C#N)c2)ccc1-c1nccc2cc(S(=O)(=O)Nc3ccncn3)ccc12` [Example 486, 1-(3′-CYANO-4′-FLUORO-3-METHOXY-[1,1′-BIPHENYL]-4-YL)-N-(PYRIMIDIN-4-YL)ISOQUINOLINE-6-SULFONAMIDE], the IC50 was above 30000 nM at Nav 1.5 (setting [1]) and 338 nM on Nav 1.7.
On to `COc1cc(-c2cc(F)cc(C#N)c2)ccc1-c1nccc2cc(S(=O)(=O)Nc3ccncn3)ccc12` [Example 487, 1-(3′-CYANO-5′-FLUORO-3-METHOXY-[1,1′-BIPHENYL]-4-YL)-N-(PYRIMIDIN-4-YL)ISOQUINOLINE-6-SULFONAMIDE], for which the IC50 on Nav 1.5 (setting [1]) was above 30000 nM; at Nav 1.7, 287 nM.
For `COc1cc(-c2ccc(F)c(C)c2)ccc1-c1nccc2cc(S(=O)(=O)Nc3ccncn3)ccc12` [Example 488, 1-(4′-FLUORO-3-METHOXY-3′-METHYL-[1,1′-BIPHENYL]-4-YL)-N-(PYRIMIDIN-4-YL)ISOQUINOLINE-6-SULFONAMIDE] the same measures were above 30000 nM and 99 nM.
For `COc1cc(-c2ccc(F)c(Cl)c2)ccc1-c1nccc2cc(S(=O)(=O)Nc3ccncn3)ccc12` [Example 490, 1-(3′-CHLORO-4′-FLUORO-3-METHOXY-[1,1′-BIPHENYL]-4-YL)-N-(PYRIMIDIN-4-YL)ISOQUINOLINE-6-SULFONAMIDE] the same measures were above 30000 nM and 62 nM.
For `COc1cc(-c2cc(F)cc(Cl)c2)ccc1-c1nccc2cc(S(=O)(=O)Nc3ccncn3)ccc12` [Example 491, 1-(3′-CHLORO-5′-FLUORO-3-METHOXY-[1,1′-BIPHENYL]-4-YL)-N-(PYRIMIDIN-4-YL)ISOQUINOLINE-6-SULFONAMIDE] the same measures were above 30000 nM and 101 nM.
For the compound `COc1cc(-c2ccc(Cl)c(F)c2)ccc1-c1nccc2cc(S(=O)(=O)Nc3ccncn3)ccc12` [Example 492, 1-(4′-CHLORO-3′-FLUORO-3-METHOXY-[1,1′-BIPHENYL]-4-YL)-N-(PYRIMIDIN-4-YL)ISOQUINOLINE-6-SULFONAMIDE], the IC50 on Nav 1.5 (setting [1]) is above 30000 nM; on Nav 1.7, 69 nM.
With `COc1cc(-c2ccc(Cl)c(C)c2)ccc1-c1nccc2cc(S(=O)(=O)Nc3ccncn3)ccc12` [Example 493, 1-(4′-CHLORO-3-METHOXY-3′-METHYL-[1,1′-BIPHENYL]-4-YL)-N-(PYRIMIDIN-4-YL)ISOQUINOLINE-6-SULFONAMIDE], the results for the IC50 on Nav 1.5 (setting [1]) and at Nav 1.7 were above 30000 nM and 86 nM, respectively.
For `COc1cc(-c2ccc(C)c(Cl)c2)ccc1-c1nccc2cc(S(=O)(=O)Nc3ccncn3)ccc12` [Example 494, 1-(3′-CHLORO-3-METHOXY-4′-METHYL-[1,1′-BIPHENYL]-4-YL)-N-(PYRIMIDIN-4-YL)ISOQUINOLINE-6-SULFONAMIDE], in that order: above 30000 nM and 78 nM.
On to `COc1cc(-c2cc(C)cc(Cl)c2)ccc1-c1nccc2cc(S(=O)(=O)Nc3ccncn3)ccc12` [Example 495, 1-(3′-CHLORO-3-METHOXY-5′-METHYL-[1,1′-BIPHENYL]-4-YL)-N-(PYRIMIDIN-4-YL)ISOQUINOLINE-6-SULFONAMIDE], for which the IC50 stood at 19100 nM at Nav 1.5 (setting [1]) and 95 nM at Nav 1.7.
With `COc1cc(C(F)(F)F)ccc1-c1nccc2cc(S(=O)(=O)Nc3cscn3)ccc12` [Example 497, 1-(2-METHOXY-4-(TRIFLUOROMETHYL)PHENYL)-N-(THIAZOL-4-YL)ISOQUINOLINE-6-SULFONAMIDE], the IC50 at Nav 1.5 (setting [1]) is above 30000 nM; on Nav 1.7, 786 nM.
As to `COc1nc(-c2cccc(F)c2)c(Cl)cc1-c1nccc2cc(S(=O)(=O)Nc3nncs3)ccc12` [Example 498, 1-(5-CHLORO-6-(3-FLUOROPHENYL)-2-METHOXYPYRIDIN-3-YL)-N-(1,3,4-THIADIAZOL-2-YL)ISOQUINOLINE-6-SULFONAMIDE], the results for the IC50 at Nav 1.5 (setting [1]) and at Nav 1.7 were above 30000 nM and 760 nM, respectively.
Regarding `COc1ccc(Cl)cc1-c1n[nH]c(=O)c2cc(S(=O)(=O)Nc3nccs3)ccc12` [Example 501, 1-(5-CHLORO-2-METHOXYPHENYL)-4-OXO-N-(THIAZOL-2-YL)-3,4-DIHYDROPHTHALAZINE-6-SULFONAMIDE], the IC50 at Nav 1.5 was above 30000 nM; on Nav 1.7 it was 124 nM.
On to `COc1ccc(Cl)cc1-c1n[nH]c(=O)c2cc(S(=O)(=O)Nc3ncns3)ccc12` [Example 505, 1-(5-CHLORO-2-METHOXYPHENYL)-4-OXO-N-(1,2,4-THIADIAZOL-5-YL)-3,4-DIHYDROPHTHALAZINE-6-SULFONAMIDE], for which the results for the IC50 at Nav 1.5 (setting [1]) and on Nav 1.7 were above 30000 nM and 258 nM, respectively.
As to `COc1ccc(Cl)cc1-c1n[nH]c(=O)c2cc(S(=O)(=O)Nc3ncc(F)s3)ccc12` [Example 507, 1-(5-CHLORO-2-METHOXYPHENYL)-N-(5-FLUOROTHIAZOL-2-YL)-4-OXO-3,4-DIHYDROPHTHALAZINE-6-SULFONAMIDE], the IC50 was above 30000 nM on Nav 1.5 (setting [1]) and 177 nM on Nav 1.7.
With `COc1ccc(-c2cccc(F)c2)cc1-c1n[nH]c(=O)c2cc(S(=O)(=O)Nc3ccncn3)ccc12` [Example 509, 1-(3′-FLUORO-4-METHOXY-[1,1′-BIPHENYL]-3-YL)-4-OXO-N-(PYRIMIDIN-4-YL)-3,4-DIHYDROPHTHALAZINE-6-SULFONAMIDE], the IC50 is above 30000 nM at Nav 1.5 (setting [1]) and 218 nM on Nav 1.7.
Consider `COc1cc(C(F)(F)F)ccc1-c1nc(C)nc2cc(S(=O)(=O)Nc3nccs3)ccc12` [Example 510, 4-(2-METHOXY-4-(TRIFLUOROMETHYL)PHENYL)-2-METHYL-N-(THIAZOL-2-YL)QUINAZOLINE-7-SULFONAMIDE], for which the IC50 was above 30000 nM at Nav 1.5 (setting [1]) and 464 nM at Nav 1.7.
For `COc1nc(-c2ccc(C(F)(F)F)cc2OC)c2ccc(S(=O)(=O)Nc3nccs3)cc2n1` [Example 511, 2-methoxy-4-(2-methoxy-4-(trifluoromethyl)phenyl)-N-(thiazol-2-yl)quinazoline-7-sulfonamide] the same measures were above 30000 nM and 257 nM.
With `COc1cc(C(F)F)c(F)cc1-c1ncnc2cc(S(=O)(=O)Nc3nccs3)ccc12` [Example 512, 4-(4-(DIFLUOROMETHYL)-5-FLUORO-2-METHOXYPHENYL)-N-(THIAZOL-2-YL)QUINAZOLINE-7-SULFONAMIDE], the IC50 on Nav 1.5 (setting [1]) was above 30000 nM; on Nav 1.7 it was 234 nM.
Consider `COc1cc(C(F)F)c(F)cc1-c1ncnc2cc(S(=O)(=O)Nc3cscn3)ccc12` [Example 513, 4-(4-(difluoromethyl)-5-fluoro-2-methoxyphenyl)-N-(thiazol-4-yl)quinazoline-7-sulfonamide], for which the IC50 was above 30000 nM at Nav 1.5 (setting [1]) and 783 nM on Nav 1.7.
For `COc1cc(C(F)F)c(F)cc1-c1nc(C)nc2cc(S(=O)(=O)Nc3nccs3)ccc12` [Example 514, 4-(4-(difluoromethyl)-5-fluoro-2-methoxyphenyl)-2-methyl-N-(thiazol-2-yl)quinazoline-7-sulfonamide], the results for the IC50 at Nav 1.5 (setting [1]) and on Nav 1.7 were above 30000 nM and 383 nM, respectively.
`COc1cc(C(F)F)ccc1-c1nc(C)nc2cc(S(=O)(=O)Nc3nccs3)ccc12` [Example 515, 4-(4-(difluoromethyl)-2-methoxyphenyl)-2-methyl-N-(thiazol-2-yl)quinazoline-7-sulfonamide]: the IC50 is above 30000 nM on Nav 1.5 (setting [1]) and 478 nM on Nav 1.7.
For `COc1cc(-c2cccc(F)c2)c(Cl)cc1-c1ncnc2cc(S(=O)(=O)Nc3ncns3)ccc12` [Example 521, 4-(2-CHLORO-3′-FLUORO-5-METHOXY-[1,1′-BIPHENYL]-4-YL)-N-(1,2,4-THIADIAZOL-5-YL)QUINAZOLINE-7-SULFONAMIDE], in that order: 4750 nM and 19 nM.
For `COc1cc(-c2cccc(F)c2)c(Cl)cc1-c1ncnc2cc(S(=O)(=O)Nc3nncs3)ccc12` [Example 522, 4-(2-CHLORO-3′-FLUORO-5-METHOXY-[1,1′-BIPHENYL]-4-YL)-N-(1,3,4-THIADIAZOL-2-YL)QUINAZOLINE-7-SULFONAMIDE], the figures for the IC50 on Nav 1.5 (setting [1]) and on Nav 1.7 were above 30000 nM and 34 nM, respectively.
On to `COc1cc(-c2cccc(F)c2)c(Cl)cc1-c1ncnc2cc(S(=O)(=O)Nc3ccncn3)ccc12` [Example 523, 4-(2-CHLORO-3′-FLUORO-5-METHOXY-[1,1′-BIPHENYL]-4-YL)-N-(PYRIMIDIN-4-YL)QUINAZOLINE-7-SULFONAMIDE], for which the IC50 on Nav 1.5 (setting [1]) came to 6590 nM; at Nav 1.7, 65 nM.
